Experimental findings from patent publication US7041701B2, “Triterpenoid derivatives” (Univerzita Palackeho V Olomouci, priority 2000, dated 2006) are described below.

The subject of assay [1] is MCF-7 human breast cancer, estrogen dependent, p53+/+, Rb+/+. As to the kind of experiment: MTT cytotoxicity assay, MCF-7. The following applies: 72 hours, read-out: TCS50. The assay is classed as cell-based. The text has this: (§1) One of the parameters used as the basis for colorimetric assays is the metabolic activity of viable cells. For example, a microtiter assay which uses the tetrazolium salt MTT is now widely used to quantitate cell proliferation and cytotoxicity [Hajdúch M, Mihál V, Minarík J, Fáber E, Safárová M, Weigl E, Antálek P.: Cytotechnology, 1996, 19, 243–245]. For instance, this assay is used in drug screening programs and in chemosensitivity testing. Because tetrazolium salts are cleaved only by metabolically active cells, these assays exclusively detect viable cells. In the case of the MTT assay, yellow soluble tetrazolium salt is reduced to a coloured water-insoluble formazan salt. After it is solubilized, the formazan formed can easily and rapidly be quantified in a conventional ELISA plate reader at 570 nm (maximum absorbancy). The quantity of reduced formazan corresponds to the number of vital cells in the culture. […]
(§2) The cell suspensions that were prepared and diluted according to the particular cell type and the expected target cell density (2,500–30,000 cells per well based on cell growth characteristics) were added by pipette (80 μl) into 96/well microtiter plates. […] Usually, test compounds were evaluated at six 4-fold dilutions. […] The tumour cell survival (TCS) was calculated using the following equitation: TCS=(ODdrug exposed well/mean ODcontrol wells)×100%. […]

For assay [2], the system named is OVCAR-3 human ovarian cancer. As to the kind of experiment: MTT cytotoxicity assay, OVCAR-3. It counts as cell-based. The settings on record: 72 hours, read-out: TCS50.
Source text: as §1, §2
A general note: Formazan colour is commonly taken as a measure of viable cells.

Assay [3] relates to K562-FLUD human promyelocytic leukemia, fludarabin resistant. As to the kind of experiment: MTT cytotoxicity assay, K562-FLUD. The assay is classed as cell-based. The settings on record: 72 hours, read-out: TCS50.
Source text: as §1, §2

Assay [4] deals with K562-CdA human promyelocytic leukemia, cladrubin resistant. Kind of assay: MTT cytotoxicity assay, K562-CdA. It counts as cell-based. The following applies: 72 hours, read-out: TCS50.
Source text: as §1, §2

For assay [5], the system named is U87MG human glioblastoma. Kind of assay: MTT cytotoxicity assay, U87MG. The assay is classed as cell-based. The settings on record: 72 hours, read-out: TCS50.
Source text: as §1, §2

The subject of assay [6] is K562 human promyelocytic leukemia. As to the kind of experiment: MTT cytotoxicity assay, K562. The assay is classed as cell-based. The following applies: 72 hours, read-out: TCS50.
Source text: as §1, §2

Assay [7] relates to HT-29 human colon cancer. Kind of assay: MTT cytotoxicity assay, HT-29. The assay is classed as cell-based. The following applies: 72 hours, read-out: TCS50.
Source text: as §1, §2

The subject of assay [8] is BT549 human breast cancer, p53mut/mut. As to the kind of experiment: MTT cytotoxicity assay, BT549. It counts as cell-based. The settings on record: 72 hours, read-out: TCS50.
Source text: as §1, §2

Assay [9] has as its system human normal lymphocytes. As to the kind of experiment: MTT cytotoxicity assay, normal lymphocytes. The assay is classed as cell-based. The following applies: 72 hours, read-out: TCS50.
Source text: as §1, §2

Assay [10] relates to B16F mouse melanoma, metastatic. As to the kind of experiment: MTT cytotoxicity assay, B16F. The assay is classed as cell-based. The settings on record: 72 hours, read-out: TCS50.
Source text: as §1, §2

The subject of assay [11] is human SK-N-AS neuroblastoma. Kind of assay: In vivo activity in xenotransplanted human neuroblastoma. More on the design: species or system CD-1/Ctrl-1 nu/nu nude female mice. The following applies: I.3 1 or 2 mg/mouse s.c. or i.p., 3×D1,2,5,6,9,10; SK-N-AS in nude mice (FIG. 2). How it is done:
Human neuroblastoma SK-N-AS cell line was obtained from ATTC. The line was cultured in Dulbeco's modified essential medium with 4.5 g dextrose/l, 10% of foetal calf serum, 2 mM glutamine, 100 U/ml penicillin and […] streptomycin. For transplantation purposes, only the cells in log phase were used.
CD-1/Ctrl-1 nu/nu nude female mice, 8 weeks old, 18–22 g weight were used in this study (IffaCredo, France). Animals were inoculated with 5.10^6 tumour cells subcutaneously into right inquinal region. Following transplantation, tumor growth was measured in both the control/vehicle and the treated groups using calipers. Tumor volume (TV) was calculated as follows: TV=(a^2×b)/2, where a is width and b is length The statistical significance was evaluated using a […].
Cisplatin (Platidiam 10 inj, sicc., Lachema, Czech Republic) was used as a control drug in this experiment. It was diluted in apyrogenic water and applied to animals in a final volume of 0.18 ml subcutaneously at day 1.
I.3 was synthesised as described above. It was suspended at 10 mg/ml in 5% dextrose and pH was adjusted to 8.0 with sodium hydroxide. vehicle: 5% dextrose with pH adjusted to 8.0 with sodium hydroxide. […]

Assay [12] relates to SW620 human colon cancer, metastasis. Kind of assay: MTT cytotoxicity assay, SW620. The settings on record: 72 hours, read-out: TCS50. The assay is classed as cell-based.
Source text: as §1, §2

The test system of assay [13] is U2OS human osteosarcoma, p53+/−, Rb+/−. As to the kind of experiment: MTT cytotoxicity assay, U2OS. The assay is classed as cell-based. The settings on record: 72 hours, read-out: TCS50.
Source text: as §1, §2

The subject of assay [14] is MEL-3 human melanoma. Kind of assay: MTT cytotoxicity assay, MEL-3. The assay is classed as cell-based. The following applies: 72 hours, read-out: TCS50.
Source text: as §1, §2

On to `CC(=O)OC[C@@]1(C(=O)O)CC[C@]2(C)[C@H](CC[C@@H]3[C@@]4(C)CC[C@H](OC(C)=O)C(C)(C)[C@@H]4CC[C@]32C)C1=O` [I.3, 3β,28-diacetoxy-18-oxo-19,20,21,29,30-pentanorlupan-22-oic acid], for which the IC50 in [1] came to 2300 nM; in assay [2] it was 1000 nM; in [3], 400 nM; in assay [4], 300 nM; in [5], 5100 nM; in assay [6], 200 nM. In addition, the IC50 in assay [7] worked out at 1600 nM; in assay [8], 2000 nM; in assay [9] it was 13000 nM; in [10], 4700 nM; in assay [12], 1200 nM; in [13], 1500 nM. Also, the IC50 in assay [14] was found to be 1300 nM. Also, the “tumor growth (tumor volume)” value in [11] is given as “no tumor growth”.
